Reference: ChEMBL document CHEMBL6078630, “Design, synthesis, and bioactivity investigation of novel cyclic lipopeptide antibiotics targeting top-priority multidrug-resistant gram-negative bacteria” (Eur J Med Chem, 2024)
Converted amounts (≈) assume the structure as drawn. The source made the active and inactive calls. The calls are words filed in the database; no cut-off is given here. Bridge positions count the residues as written; N and C are the ends. Square brackets hold non-standard residues; d marks the D form. Peptide text beside a SMILES is read from it. * marks the point of attachment. Heptanoyl(6-Me) = CC(C)CCCCC(=O)*; Dab = NCC[C@H](N)C(=O)O; Dap = NC[C@H](N)C(=O)O

Assays:
Escherichia coli [1] = test: Antibacterial activity against carbapenem-resistant Escherichia coli ATCC BAA-2340 assessed as inhibition of bacterial growth incubated for 16 to 20 hrs by CLSI protocol based broth microdilution method; type: functional; details: time 16-20 hrs
Klebsiella pneumoniae [2] = test: Antibacterial activity against carbapenem-resistant Klebsiella pneumoniae clinical isolate ets75 assessed as inhibition of bacterial growth incubated for 24 hrs by CLSI protocol based broth microdilution method; type: functional
Acinetobacter baumannii [3] = test: Antibacterial activity against carbapenem-resistant Acinetobacter baumannii clinical isolate ets123 assessed as inhibition of bacterial growth incubated for 24 hrs by CLSI protocol based broth microdilution method; type: functional
Escherichia coli [4] = test: Antibacterial activity against Escherichia coli ATCC BAA-2523 infected in ICR mouse model assessed as survival rate at 4 mg/kg, iv administered at 1 and 6 hrs post-infection and measured after 7 days relative to control; type: functional; details: ATCC BAA-2523, 168 h, time 7 day
Pseudomonas aeruginosa [5] = test: Antibacterial activity against Pseudomonas aeruginosa ATCC 27853 assessed as decrease in bacterial concentration at 0.5 to 2 times of MIC measured after 1 hrs by time-kill kinetics assay; type: functional, organism-based
[6] = Toxicity in ICR mouse assessed as adverse effect at 15.4 mg/kg, iv administered as single dose; type: organism-based; details: in vivo
Klebsiella pneumoniae [7] = test: Antibacterial activity against carbapenem-resistant Klebsiella pneumoniae clinical isolate ets45 assessed as inhibition of bacterial growth incubated for 24 hrs by CLSI protocol based broth microdilution method; type: functional
Pseudomonas aeruginosa [8] = test: Antibacterial activity against carbapenem-resistant Pseudomonas aeruginosa clinical isolate ets33 assessed as inhibition of bacterial growth incubated for 24 hrs by CLSI protocol based broth microdilution method; type: functional
Pseudomonas aeruginosa [9] = test: Antibacterial activity against Pseudomonas aeruginosa ATCC 27853 assessed as bacterial concentration at 4 to 8 times of MIC measured after 1 hrs by time-kill kinetics assay; type: functional, organism-based
Pseudomonas aeruginosa [10] = test: Antibacterial activity against Pseudomonas aeruginosa ATCC 27853 infected in ICR mouse model infected in ICR mouse model assessed as survival rate at 10 mg/kg, iv administered at 1 and 6 hrs post-infection and measured after 7 days relative to control; type: functional; details: ATCC 27853, 168 h, time 7 day
Pseudomonas aeruginosa [11] = test: Antibacterial activity against carbapenem-resistant Pseudomonas aeruginosa clinical isolate ets15 assessed as inhibition of bacterial growth incubated for 24 hrs by CLSI protocol based broth microdilution method; type: functional
Klebsiella pneumoniae [12] = test: Antibacterial activity against carbapenem-resistant Klebsiella pneumoniae clinical isolate ets74 assessed as inhibition of bacterial growth incubated for 24 hrs by CLSI protocol based broth microdilution method; type: functional
Acinetobacter baumannii [13] = test: Antibacterial activity against carbapenem-resistant Acinetobacter baumannii clinical isolate ets178 assessed as inhibition of bacterial growth incubated for 24 hrs by CLSI protocol based broth microdilution method; type: functional
Klebsiella pneumoniae [14] = test: Antibacterial activity against carbapenem-resistant Klebsiella pneumoniae clinical isolate ets26 assessed as inhibition of bacterial growth incubated for 24 hrs by CLSI protocol based broth microdilution method; type: functional
Klebsiella pneumoniae [15] = test: Antibacterial activity against carbapenem-resistant Klebsiella pneumoniae ATCC BAA-1705 assessed as inhibition of bacterial growth incubated for 16 to 20 hrs by CLSI protocol based broth microdilution method; type: functional; details: time 16-20 hrs
Pseudomonas aeruginosa [16] = test: Antibacterial activity against Pseudomonas aeruginosa ATCC 27853 assessed as inhibition of bacterial growth incubated for 16 to 20 hrs by CLSI protocol based broth microdilution method; type: functional; details: time 16-20 hrs
Klebsiella pneumoniae [17] = test: Antibacterial activity against carbapenem-resistant Klebsiella pneumoniae clinical isolate KPN+19-15 assessed as inhibition of bacterial growth incubated for 16 to 20 hrs by CLSI protocol based broth microdilution method; type: functional; details: time 16-20 hrs
Lipopolysaccharide (LPS) [18] = test: Binding affinity to Pseudomonas aeruginosa LPS assessed as dissociation constant by SPR analysis
Escherichia coli [19] = test: Antibacterial activity against carbapenem-resistant Escherichia coli clinical isolate 231109W005 assessed as inhibition of bacterial growth incubated for 24 hrs by CLSI protocol based broth microdilution method; type: functional
Pseudomonas aeruginosa [20] = test: Antibacterial activity against carbapenem-resistant Pseudomonas aeruginosa clinical isolate ets22 assessed as inhibition of bacterial growth incubated for 24 hrs by CLSI protocol based broth microdilution method; type: functional
Klebsiella pneumoniae [21] = test: Antibacterial activity against carbapenem-resistant Klebsiella pneumoniae clinical isolate KPN+19-15 infected in ICR mouse model assessed as survival rate at 2 mg/kg, iv administered at 1 and 6 hrs post-infection and measured after 7 days relative to control; type: functional; details: 168 h, time 7 day
Acinetobacter baumannii [22] = test: Antibacterial activity against Acinetobacter baumannii NCTC 13304 (OXA-27) assessed as inhibition of bacterial growth incubated for 16 to 20 hrs by CLSI protocol based broth microdilution method; type: functional; details: time 16-20 hrs
Pseudomonas aeruginosa [23] = test: Potentiation of rifampicin induced antibacterial activity against Pseudomonas aeruginosa ATCC 27853 assessed as rifampicin MIC at 0.06 microg/ml incubated 24 hrs by cation adjusted Mueller-Hinton broth based method; type: functional; details: dose 0.06 µg/ml
Lipopolysaccharide (LPS) [24] = test: Binding affinity to Escherichia coli LPS assessed as dissociation constant by SPR analysis
Klebsiella pneumoniae [25] = test: Antibacterial activity against carbapenem-resistant Klebsiella pneumoniae clinical isolate ets80 assessed as inhibition of bacterial growth incubated for 24 hrs by CLSI protocol based broth microdilution method; type: functional
Pseudomonas aeruginosa [26] = test: Antibacterial activity against carbapenem-resistant Pseudomonas aeruginosa clinical isolate ets38 assessed as inhibition of bacterial growth incubated for 24 hrs by CLSI protocol based broth microdilution method; type: functional
Pseudomonas aeruginosa [27] = test: Potentiation of rifampicin induced antibacterial activity against Pseudomonas aeruginosa ATCC 27853 assessed as rifampicin MIC at 0.03 microg/ml incubated 24 hrs by cation adjusted Mueller-Hinton broth based method; type: functional; details: dose 0.03 µg/ml
Pseudomonas aeruginosa [28] = test: Antibacterial activity against carbapenem-resistant Pseudomonas aeruginosa clinical isolate 19-3 assessed as inhibition of bacterial growth incubated for 16 to 20 hrs by CLSI protocol based broth microdilution method; type: functional; details: time 16-20 hrs
Klebsiella pneumoniae [29] = test: Antibacterial activity against carbapenem-resistant Klebsiella pneumoniae ATCC BAA-1705 infected in ICR mouse model administered intravenously with compound at 1 and 6 hrs post-infection and measured after 7 days; type: functional; details: ATCC BAA-1705, 168 h, route iv, time 7 day
[30] = Clearance in male Sprague-Dawley rat at 3 mg/kg, iv measured after 24 hrs by LC-MS/MS analysis; type: ADME, organism-based; details: in vivo
Escherichia coli [31] = test: Antibacterial activity against carbapenem-resistant Escherichia coli clinical isolate 231112E006B assessed as inhibition of bacterial growth incubated for 24 hrs by CLSI protocol based broth microdilution method; type: functional
Pseudomonas aeruginosa [32] = test: Antibacterial activity against Pseudomonas aeruginosa ATCC 27853 infected in ICR mouse model administered intravenously with compound at 1 and 6 hrs post-infection and measured after 7 days; type: functional; details: ATCC 27853, 168 h, route iv, time 7 day
Pseudomonas aeruginosa [33] = test: Antibacterial activity against carbapenem-resistant Pseudomonas aeruginosa clinical isolate ets85 assessed as inhibition of bacterial growth incubated for 24 hrs by CLSI protocol based broth microdilution method; type: functional
Pseudomonas aeruginosa [34] = test: Potentiation of rifampicin induced antibacterial activity against Pseudomonas aeruginosa ATCC 27853 assessed as rifampicin MIC at 0.25 microg/ml incubated 24 hrs by cation adjusted Mueller-Hinton broth based method; type: functional; details: dose 0.25 µg/ml
Pseudomonas aeruginosa [35] = test: Potentiation of rifampicin induced antibacterial activity against Pseudomonas aeruginosa ATCC 27853 assessed as rifampicin MIC at 0.125 microg/ml incubated 24 hrs by cation adjusted Mueller-Hinton broth based method; type: functional; details: dose 0.125 µg/ml

`CC(C)CCCCC(=O)N[C@@H](CCN)C(=O)N[C@H](C(=O)N[C@@H](CN)C(=O)N[C@H]1CCNC(=O)[C@H]([C@@H](C)O)NC(=O)[C@H](CCN)NC(=O)[C@H](CCN)NC(=O)[C@H]([C@@H](C)O)NC(=O)[C@@H](Cc2ccccc2)NC(=O)[C@H](CCN)NC1=O)[C@@H](C)O` ({Heptanoyl(6-Me)}-[Dab]T[Dap][Dab][Dab][dF]T[Dab][Dab]T; lactam 4-C) gave an MIC (Escherichia coli [1]) of at most 0.03 mg/L, an MIC (Klebsiella pneumoniae [2]) of 0.5 mg/L (≈ 0.43 µM) and an MIC (Acinetobacter baumannii [3]) of 0.5 mg/L (≈ 0.43 µM). The survival at 4 mg/kg (Escherichia coli [4]) was 100%, the Activity (Pseudomonas aeruginosa [5]) was “Active” and the Activity [6] was “Non-toxic”. The MIC (Klebsiella pneumoniae [7]) was 0.25 mg/L (≈ 0.215 µM), the MIC (Pseudomonas aeruginosa [8]) was 0.5 mg/L (≈ 0.43 µM) and the Activity (Pseudomonas aeruginosa [9]) was “Below limit of detection”. For the same compound, the survival at 10 mg/kg (Pseudomonas aeruginosa [10]) was 100%, the MIC (Pseudomonas aeruginosa [11]) was 0.5 mg/L (≈ 0.43 µM) and the MIC (Klebsiella pneumoniae [12]) was 0.5 mg/L (≈ 0.43 µM). For the same compound, the MIC (Acinetobacter baumannii [13]) was 0.5 mg/L (≈ 0.43 µM), the MIC (Klebsiella pneumoniae [14]) was 0.5 mg/L (≈ 0.43 µM) and the MIC (Klebsiella pneumoniae [15]) was at most 0.03 mg/L. It also gave an MIC (Pseudomonas aeruginosa [16]) of 0.125 mg/L (≈ 0.107 µM), an MIC (Klebsiella pneumoniae [17]) of at most 0.03 mg/L and a Kd (Lipopolysaccharide (LPS) [18]) of 11.5 µM. The MIC (Escherichia coli [19]) was under 0.06 mg/L, the MIC (Pseudomonas aeruginosa [20]) was 2 mg/L (≈ 1.72 µM) and the survival at 2 mg/kg (Klebsiella pneumoniae [21]) was 100%. The MIC (Acinetobacter baumannii [22]) was at most 0.03 mg/L, the MIC (Pseudomonas aeruginosa [23]) was 0.25 mg/L and the Kd (Lipopolysaccharide (LPS) [24]) was 0.03 µM. It also gave an MIC (Klebsiella pneumoniae [25]) of 0.25 mg/L (≈ 0.215 µM), an MIC (Pseudomonas aeruginosa [26]) of 1 mg/L (≈ 0.86 µM) and an MIC (Pseudomonas aeruginosa [27]) of 16 mg/L. The MIC (Pseudomonas aeruginosa [28]) was 0.125 mg/L (≈ 0.107 µM), the ED50 (Klebsiella pneumoniae [29]) was 0.32 mg/kg and the clearance [30] was 0.25 L/h/kg. It also gave an MIC (Escherichia coli [31]) of under 0.06 mg/L, an ED50 (Pseudomonas aeruginosa [32]) of 6.38 mg/kg and an MIC (Pseudomonas aeruginosa [33]) of 0.5 mg/L (≈ 0.43 µM). It also gave an MIC (Pseudomonas aeruginosa [34]) of at most 0.06 mg/L and an MIC (Pseudomonas aeruginosa [35]) of at most 0.06 mg/L.
